The source of these data is publication PMC7996082, “The translocator protein ligands as mitochondrial functional modulators for the potential anti-Alzheimer agents” (Journal of Enzyme Inhibition and Medicinal Chemistry, 2021).

For one data set, the target named is T1, CYP2C9 (Homo sapiens, UniProt P11712).
T1 construct: purchased Invitrogen, Madison, WI, USA
Nature of the data set: CYP inhibition assay (Vivid CYP450 screening kit). The format is in vitro ADME. As to conditions: 10 μM compound. On the procedure:
(§1) Human CYP450 (CYP1A2, 2D6, 2C9, 2C19, and 3A4) activities were determined by using the Vivid® CYP450 screening kit (Invitrogen, Madison, WI, USA) in a clear 96-well plate. Five positive controls were used as 10 mM solutions in MeCN for five different CYP450 enzymes: CYP1A2 (α-naphthoflavone), CYP2D6 (quinidine), CYP2C9 (sulfaphenazole), CYP2C19 (lansoprazole), and CYP3A4 (ketoconazole). Each sample (test compounds, positive inhibition controls, and solvent controls) was added into each well with the Master Pre-Mix [CYP450 BACULOSOMES® Reagent (recombinant human CYP450 isozyme and rabbit NADPHP450 reductase) and Regeneration System (3.3 mM glucose-6-phosphate and 0.3 U/ml glucose-6-phosphate dehydrogenase in 100 mM potassium phosphate, pH 8.0)]. The mixture was incubated for 5 min at 37 °C, and the Vivid® CYP substrates and 0.1 mM NADP^+ buffer were added to initiate the CYP450 enzyme reaction. The % remaining activities of CYP450 were measured after 20 min by using a fluorescent plate reader (Flexstation® 3, Molecular Devices, USA).

The next data set deals with T2, CYP3A4 (Homo sapiens, UniProt P08684).
T2 construct: purchased Invitrogen, Madison, WI, USA
T2 sequence (P08684 2-503 limits assumed): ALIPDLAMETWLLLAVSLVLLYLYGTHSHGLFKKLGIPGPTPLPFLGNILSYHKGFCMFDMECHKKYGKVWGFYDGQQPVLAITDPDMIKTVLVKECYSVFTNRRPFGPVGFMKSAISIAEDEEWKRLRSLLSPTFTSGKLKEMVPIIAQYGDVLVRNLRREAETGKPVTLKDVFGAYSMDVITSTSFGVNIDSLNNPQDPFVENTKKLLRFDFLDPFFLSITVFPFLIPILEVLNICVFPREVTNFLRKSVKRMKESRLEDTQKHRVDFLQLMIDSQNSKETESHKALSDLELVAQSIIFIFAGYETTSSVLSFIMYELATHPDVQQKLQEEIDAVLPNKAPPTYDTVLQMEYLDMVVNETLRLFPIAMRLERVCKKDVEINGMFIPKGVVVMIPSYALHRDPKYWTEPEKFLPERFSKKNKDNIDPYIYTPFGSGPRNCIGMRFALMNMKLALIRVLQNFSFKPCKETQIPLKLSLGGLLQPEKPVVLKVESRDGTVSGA
Nature of the data set: CYP inhibition assay (Vivid CYP450 screening kit). It counts as in vitro ADME. As to conditions: 10 μM compound. The method, then:
as §1

The next data set concerns the target T3, hERG channel (Homo sapiens, UniProt Q12809).
T3 construct: host or cells: CHO-K1 Tet-On hERG cells
In words: hERG inhibition assay (automated patch-clamp, CHO-K1 Tet-On hERG cells). The format is cell-based. As to conditions: for IC50: patch-clamp, ± SD; for hERG inhibition (in words): authors' grading of Table 6. On the procedure:
For automated patch-clamp NPC-16 Patchliner (Nanion Technologies, München, Germany) recordings, CHO-K1 Tet-On hERG cells (IonGate Biosciences GmbH, Frankfurt, Germany) were plated into 100-mm cell culture dishes. Whole-cell currents were recorded with the intracellular solution containing: 50 mM KCl, 60 mM KF, 10 mM NaCl, 2 mM MgCl2, 20 mM EGTA and 10 mM HEPES (pH 7.2), and with the extracellular solution containing: 140 mM NaCl, 4 mM KCl, 2 mM CaCl2, 1 mM MgCl2, 5 mM Glucose and 10 HEPES (pH 7.4). To assist stable seal formations, the seal enhancer containing: 80 mM NaCl, 3 mM KCl, 35 mM CaCl2, 10 mM MgCl2 and 10 mM HEPES (pH 7.4) was used only at the seal formation step. Prior to the whole-cell recordings, the external seal enhancing solution was exchanged to the extracellular solution described above. hERG channel currents were recorded using the parallel EPC-10 patch-clamp amplifiers (HEKA Elektronik, Lambrecht/Pfalz, Germany), and low-pass filtered (10 kHz) with a 4-pole Bessel filter. Cell suspension and patch solutions were automatically added onto the four recording wells in the microfabricated disposable chip (NPC-16 Chip, Nanion Technologies, München, Germany). To obtain the inhibitory constants, hERG tail currents were evoked by repolarizing steps to −50 mV for 500 ms preceded by a 500-ms depolarisation potential of +20 mV at a holding potential of −80 mV with a 20-s sweep interval. Whole-cell currents were acquired and digitised at 5 kHz using Patchmaster (HEKA Elektronik, Lambrecht/Pfalz, Germany). The extracellular solution was exchanged to the extracellular solution containing each blocker via four pipette tips of NPC-16 Patchliner using a 4-fold volume of solution (40 µL) with a speed of 4 µL/s, and the exchanged blocker solution was applied for 100–200 s to the patch-clamped cells until blocker binding had reached equilibrium by monitoring hERG tail currents. Whole-cell recordings were analysed using the Patchmaster/Fitmaster (HEKA Elektronik, Lambrecht/Pfalz, Germany), IGOR Pro (WaveMetrics Inc., Portland, OR, USA), and the GraphPad Prism 4.0 (GraphPad Software, Inc., La Jolla, CA, USA) software.
A general note: Block of hERG is tested as a sign of cardiac risk.

The test system of data set [1] is acute AD model mice (Aβ1-42 ICV injected ICR mice). Nature of the data set: Y-maze spontaneous alternation test in acute AD model mice. The format is in vivo, mouse. Conditions: 30 mg/kg daily, 6 days; for Recovery of Y-maze spontaneous alternations: i.p. The method, then: The acute AD mice model was prepared by administration of Aβ1-42 solution (10% DMSO/90% PBS) to male ICR mice (6 weeks old, 30 − 33 g) via intracerebroventricular (ICV) injection (Aβ1-42 dose: 500 pmol/mouse) as described previously. The wild type mice (B6C3F1) and double APP/PS1 transgenic mice (Tg AD mice model; APPswe/PSEN1dE9) were purchased from Jackson Laboratory (Bar Harbour, ME, USA). The Tg AD model mice were 11 months old at the beginning of the behaviour test, and were housed for 1 month in a room under controlled temperature and fed ad libitum. The behaviour tests were conducted during daytime in air-controlled and soundproof experiment room. The animal experiments were abided by the guidelines of the Institutional Animal Care and Use Committee of Korea Institute of Science and Technology.
To the mice of the acute AD model (n = 7 per group), each test compound (test compound in 20% cyclodextrin, 30 mg/kg) was […] injected daily for 6 days. The Y-maze spontaneous alternation test was performed 1 day after the administration of each test compound. The Y maze was made of three equally spaced black plastic arms (40 L × 10 W × 12 H cm) positioned at an equal angle. Each mouse was placed at the end of one arm and allowed to move freely through the maze for 8 min, and the sequence of arm entries was recorded. The arm entry of the mouse was counted when the all four limbs were within an arm. A set of entries into all three arms is considered as a spontaneous alternation. The spontaneous alternation (%) was calculated by the following equation: Spontaneous alternation (%)=100x[number of alternations/(total number of arm entries – 2)]
We evaluated in vivo activity of 7 and 14 in an acute AD mouse model. The acute AD model mice were generated by the administration of Aβ1-42 peptide (500 pmol) according to the previously reported method, and each compound (30 mg/kg daily) was administered intraperitoneally for 6 days. Piracetam (30 mg/kg daily) was also administered in parallel for comparison. The Y-maze spontaneous alternation tests were performed to measure the recovery of learning and memory deficit in acute AD model mice[38]^,[39]. […] We believe that the treatment of 7 was beneficial for ameliorating Aβ-induced cognitive impairments.

T3 sequence (Q12809 whole entry): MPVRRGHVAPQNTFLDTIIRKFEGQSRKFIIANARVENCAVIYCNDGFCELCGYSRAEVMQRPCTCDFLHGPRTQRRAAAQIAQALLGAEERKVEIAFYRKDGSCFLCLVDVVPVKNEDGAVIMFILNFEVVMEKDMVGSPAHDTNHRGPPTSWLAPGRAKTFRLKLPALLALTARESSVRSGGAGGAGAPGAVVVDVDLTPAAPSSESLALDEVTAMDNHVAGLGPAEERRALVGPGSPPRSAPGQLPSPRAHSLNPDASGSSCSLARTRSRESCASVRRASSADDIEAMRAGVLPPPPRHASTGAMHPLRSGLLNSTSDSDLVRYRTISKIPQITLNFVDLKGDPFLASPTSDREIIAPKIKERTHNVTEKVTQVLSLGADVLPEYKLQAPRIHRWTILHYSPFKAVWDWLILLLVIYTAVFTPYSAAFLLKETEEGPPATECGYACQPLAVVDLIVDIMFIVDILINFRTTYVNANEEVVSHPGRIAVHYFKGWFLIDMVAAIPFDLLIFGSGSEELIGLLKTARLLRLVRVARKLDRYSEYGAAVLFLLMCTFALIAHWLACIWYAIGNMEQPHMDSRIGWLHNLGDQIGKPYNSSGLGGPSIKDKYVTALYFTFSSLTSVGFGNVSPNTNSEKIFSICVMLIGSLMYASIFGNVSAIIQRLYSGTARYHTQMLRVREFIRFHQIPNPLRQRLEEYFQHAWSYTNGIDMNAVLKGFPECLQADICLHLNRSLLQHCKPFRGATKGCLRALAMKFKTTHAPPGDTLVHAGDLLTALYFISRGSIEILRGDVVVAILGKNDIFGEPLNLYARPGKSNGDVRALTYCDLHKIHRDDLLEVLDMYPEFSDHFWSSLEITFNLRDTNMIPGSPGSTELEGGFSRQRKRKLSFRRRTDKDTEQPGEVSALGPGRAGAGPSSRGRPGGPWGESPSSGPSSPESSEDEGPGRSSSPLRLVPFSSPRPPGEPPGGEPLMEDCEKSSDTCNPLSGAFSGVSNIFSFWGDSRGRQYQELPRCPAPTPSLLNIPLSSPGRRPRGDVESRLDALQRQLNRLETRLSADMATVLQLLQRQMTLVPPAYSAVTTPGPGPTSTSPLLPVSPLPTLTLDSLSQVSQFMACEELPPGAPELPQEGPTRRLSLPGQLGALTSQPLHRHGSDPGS
T1 sequence (P11712 whole entry): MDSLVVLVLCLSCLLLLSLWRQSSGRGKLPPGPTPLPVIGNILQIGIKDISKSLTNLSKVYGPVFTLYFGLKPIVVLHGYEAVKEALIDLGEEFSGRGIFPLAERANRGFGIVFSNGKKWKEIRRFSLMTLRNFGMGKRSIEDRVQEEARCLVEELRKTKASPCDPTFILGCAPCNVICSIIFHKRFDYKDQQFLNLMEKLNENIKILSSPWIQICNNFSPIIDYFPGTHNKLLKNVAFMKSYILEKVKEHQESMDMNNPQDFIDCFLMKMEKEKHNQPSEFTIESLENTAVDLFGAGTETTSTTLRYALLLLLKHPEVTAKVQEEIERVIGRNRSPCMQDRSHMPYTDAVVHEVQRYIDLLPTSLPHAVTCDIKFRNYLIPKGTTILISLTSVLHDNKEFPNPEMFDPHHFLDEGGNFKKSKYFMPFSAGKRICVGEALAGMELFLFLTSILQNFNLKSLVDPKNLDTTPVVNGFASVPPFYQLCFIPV

With `CCOc1ccc(-n2c(SCC(=O)Nc3ccc(OC)c(OC)c3)nc3sc4c(c3c2=O)CCN(C(C)=O)C4)cc1` [Compound 7], on CYP2C9, the “CYP450 (% remaining Activity at 10 μM) CYP2C9” value is given as 72.5%. Besides, on CYP3A4, the “CYP450 (% remaining Activity at 10 μM) CYP3A4” value is 69.9%. Also, the half-inhibitory concentration (IC50) (in general, the concentration needed to halve the response being measured) at hERG channel was determined as 19.5 ± 4.43 µM. Moreover, in data set [1], the “Recovery of Y-maze spontaneous alternations” value was determined as 76%.
As for `CCOc1ccc(-n2c(SCC(=O)NC3CCN(C)CC3)nc3sc4c(c3c2=O)CCN(C(C)=O)C4)cc1` [Compound 30], the “CYP450 (% remaining Activity at 10 μM) CYP2C9” value on CYP2C9 is listed as 93.0%. Further, at CYP3A4, the “CYP450 (% remaining Activity at 10 μM) CYP3A4” value was found to be 31.0%. On hERG channel, the “hERG inhibition (in words)” value is “low hERG inhibition” and inhibition was half-maximal at 12.3 ± 1.25 µM (IC50). For the same compound, the “Y-maze activity in acute AD model (in words)” value (shortened to “Y-maze activity”) in data set [1] is “did not show significant activity”.
With `CCOc1ccc(-n2c(SCC(=O)NCc3ccccc3)nc3sc4c(c3c2=O)CCN(C(C)=O)C4)cc1` [Compound 31], the “CYP450 (% remaining Activity at 10 μM) CYP2C9” value at CYP2C9 is on record as 51.1%. Further, the “CYP450 (% remaining Activity at 10 μM) CYP3A4” value at CYP3A4 is reported as 18.3%. Moreover, on hERG channel, the “hERG inhibition (in words)” value is listed as “low hERG inhibition” and the IC50 turned out to be 8.8 ± 2.36 µM. Besides, the “Recovery of Y-maze spontaneous alternations” value in data set [1] was 107%.
The corresponding values for `CCOc1ccc(-n2c(SCC(=O)N3CCN(c4ccccc4)CC3)nc3sc4c(c3c2=O)CCN(C(C)=O)C4)cc1` [Compound 44] are 84.4%, 72.2%, “low hERG inhibition”, 8.9 ± 0.22 µM and 98%.
For the compound `CCOc1ccc(-n2c(SCC(=O)NCc3ccccc3)nc3sc4c(c3c2=O)CCN(C)C4)cc1` [Compound 49], the “CYP450 (% remaining Activity at 10 μM) CYP2C9” value at CYP2C9 worked out at 99.6%. Also, the “CYP450 (% remaining Activity at 10 μM) CYP3A4” value at CYP3A4 amounted to 28.1%. In addition, on hERG channel, the “hERG inhibition (in words)” value is reported as “low hERG inhibition” and it took 15 ± 4.24 µM to reach half-maximal inhibition (IC50). For the same compound, the “Y-maze activity” value in data set [1] is “did not show significant activity”.
`CCOc1ccc(-n2c(SCC(=O)N(C)Cc3ccccc3)nc3sc4c(c3c2=O)CCN(C)C4)cc1` [Compound 50]: the “CYP450 (% remaining Activity at 10 μM) CYP2C9” value at CYP2C9 is 66.4%. Besides, at CYP3A4, the “CYP450 (% remaining Activity at 10 μM) CYP3A4” value turned out to be 36.5%. At hERG channel, the “hERG inhibition (in words)” value is “low hERG inhibition” and the IC50 was 10.6 ± 0.97 µM. Further, in data set [1], the “Y-maze activity” value is on record as “did not show significant activity”.
